Where “and” joins values, the source holds several entries; their conditions need not be identical. Equal values may be shown once. Read-outs that look alike come from different tables or passages of the source. Marks after values point to notes of the source that are not given here.
Assays:
[1] = molecular target: T1, Angiotensin-converting enzymes (ACE) from porcine kidneys (EC 3.4.15.1) (Sus scrofa, UniProt F1RRW5); experiment: biochemical; conditions: for lower IC50 in relation to the respective aglycone / higher value of IC50 as compared to the IC50 of the respective aglycon: ACE inhibition; for lower IC50 in relation to the respective aglycone: glycoside vs aglycon; for ACE inhibitory activity lower than that of reduced glutathione (GSH): ratio to the IC50 of GSH; for higher value of IC50 as compared to the IC50 of the respective aglycon: glucoside vs aglycon
T1 construct: Angiotensin-converting enzymes (ACE) from porcine kidneys (EC 3.4.15.1) were purchased from Sigma-Aldrich; purchased Sigma-Aldrich (St. Louis, MO, USA); host or cells: porcine kidneys (tissue-derived enzyme)
T1 sequence (F1RRW5 34-1309): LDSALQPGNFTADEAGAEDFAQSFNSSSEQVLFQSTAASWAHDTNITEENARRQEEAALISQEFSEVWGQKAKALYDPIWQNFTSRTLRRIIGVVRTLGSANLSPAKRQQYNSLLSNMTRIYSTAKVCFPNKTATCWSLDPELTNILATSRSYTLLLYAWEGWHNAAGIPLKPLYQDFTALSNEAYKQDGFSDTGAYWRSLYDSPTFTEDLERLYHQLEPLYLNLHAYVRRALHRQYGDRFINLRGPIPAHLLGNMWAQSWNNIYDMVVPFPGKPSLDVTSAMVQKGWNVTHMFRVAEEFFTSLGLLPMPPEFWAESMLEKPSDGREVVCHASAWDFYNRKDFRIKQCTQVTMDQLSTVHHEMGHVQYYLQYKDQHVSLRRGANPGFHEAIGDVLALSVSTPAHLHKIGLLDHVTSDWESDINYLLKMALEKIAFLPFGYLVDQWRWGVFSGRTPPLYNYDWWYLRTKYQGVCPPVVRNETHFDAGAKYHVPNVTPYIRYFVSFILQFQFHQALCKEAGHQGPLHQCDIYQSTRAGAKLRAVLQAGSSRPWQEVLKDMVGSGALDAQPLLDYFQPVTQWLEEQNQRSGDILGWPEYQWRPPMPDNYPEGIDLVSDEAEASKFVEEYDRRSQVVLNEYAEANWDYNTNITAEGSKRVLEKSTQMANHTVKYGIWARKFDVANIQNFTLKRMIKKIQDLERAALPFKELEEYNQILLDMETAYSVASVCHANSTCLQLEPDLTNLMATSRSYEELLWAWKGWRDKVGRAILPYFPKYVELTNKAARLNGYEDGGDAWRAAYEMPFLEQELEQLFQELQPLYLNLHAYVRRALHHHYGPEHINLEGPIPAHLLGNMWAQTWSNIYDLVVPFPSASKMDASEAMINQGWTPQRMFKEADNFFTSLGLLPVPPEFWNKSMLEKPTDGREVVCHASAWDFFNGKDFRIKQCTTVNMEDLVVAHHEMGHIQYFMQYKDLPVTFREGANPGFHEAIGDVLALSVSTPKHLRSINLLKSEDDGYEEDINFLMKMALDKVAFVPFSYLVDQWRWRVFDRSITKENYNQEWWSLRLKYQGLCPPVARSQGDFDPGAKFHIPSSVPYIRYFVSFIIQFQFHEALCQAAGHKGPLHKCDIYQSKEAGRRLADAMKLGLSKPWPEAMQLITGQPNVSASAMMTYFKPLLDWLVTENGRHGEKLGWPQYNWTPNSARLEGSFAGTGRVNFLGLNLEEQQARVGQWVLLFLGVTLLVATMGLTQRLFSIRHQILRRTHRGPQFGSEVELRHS
Method: Angiotensin-converting enzymes (ACE) from porcine kidneys (EC 3.4.15.1) were purchased from Sigma-Aldrich (St. Louis, MO, USA). A three-tris-base buffer was as follows: buffer A: 300 mM Tris-base buffer (pH 8.3) with 2 mM ZnCl2; buffer B: 150 mM Tris-base buffer (pH 8,3); and buffer C: 150 mM Tris-base buffer (pH 8.3) with […] NaCl. The substrate o-aminobenzoylglycyl-p-nitorphenylalanylproline (Abz-Gly-Phe(NO2)-Pro) was obtained from BACHEM (Bubendorf, Switzerland). Standards of phenolic acids, flavonoids, glucosides, and low-molecular-weight phenolic metabolites were obtained from Sigma-Aldrich (St. Louis, MO, USA) and Extrasynthese (Genay, France). Water was purified using the Mili-Q system (Milipore, Bedford, MA, USA).
Stock solutions at 1 mM of selected phenolic acids, flavonoids, their O-glucosides, and low-molecular-weight phenolic metabolites were prepared in 80% methanol. The concentration was confirmed by a UV measurement according to Franke et al.. A wide range of concentrations of each compound was prepared by serial dilutions in deionized water to determine the IC50 value. […] The ACE inhibitory activity was obtained from three repetitions (n = 3) for each concentration.
Angiotensin-converting enzyme (ACE) activity inhibitory assay was performed according to the method of Sentandreu and Toldra. The procedure was based on the hydrolysis of the internally quenched substrate o-aminobenzoylglycyl-p-nitorphenylalanylproline (Abz-Gly-Phe(NO2)-Pro) by the reaction of ACE. The fluorescence generated by the liberation of the product (the o-aminobenzoylglycine group) was read in a microplate multiscan fluorometer. The production of fluorescence was inhibited by the presence of functional compounds with an ACE inhibitory effect. The fluorescence was measured immediately after mixing (0 min) and then after 30 min of reaction at an excitation of 365 nm and an emission of 405 nm. To calculate the % of inhibition of ACE, the following equation was used:Relative ACE activity% = 100 − (ΔRFUsample × 100/ΔRFUnegative control), where ΔRFU = RFU at time 30 – RFU at time 0.

[2] = First anodic oxidation potential by differential pulse voltammetry (DPV); format: physicochemical; conditions: for Anodic Peak Potential Epa: DPV, first anodic peak, 0.25 mM standard in 0.1 M Britton-Robinson buffer pH 6.0 in 80% methanol, glassy carbon vs Ag/AgCl, 100 mV/s; for antioxidant power class based on the first oxidation potential: classes according to Blasco et al. [47]
Method: A potentiostat/galvanostat G 750 (Gamry Instruments, Warminster, USA) was used for voltametric experiments. A conventional three-electrode system: a 3 mm diameter glassy carbon working electrode (BAS MF-2012), an Ag/AgCl electrode as a reference electrode, and a platinum as counter electrode, was used in the study. Differential pulse voltametric experiments were performed with phenolic acids and flavonoids prepared in a 1:1 (v/v) mixture of 500 µM standard solution and […] Britton-Robinson (B-R) buffer (pH 6.0 in 80% methanol), which also served as a supporting electrolyte. The voltametric experiments were performed at room temperature using an electrochemical cell (volume 200 µL), to which the analyzed standard solution, mixed previously with the buffer solution, was introduced. The differential pulse voltammograms were acquired in the range of −100 to 1300 mV at a scanning rate of 100 mV/s. Before use, the surface of the glassy carbon electrode was carefully polished with 0.05 µm alumina paste, ultrasonically rinsed in deionized water, and then washed with methanol. This procedure was repeated after each cycle. For test purposes, the first anodic oxidation potential was recorded (mV).

[3] = porcine kidney ACE, substrate Abz-Gly-Phe(NO2)-Pro, fluorescence after 30 min, mean ± SD, read-out: IC50 Value (ACE inhibitory activity)
[4] = low-molecular-weight phenolic metabolites

Row | Compound | IC50 [1, 3] | Anodic Peak Potential Epa [2] | also measured
1 | O=C(O)C=Cc1ccc(O)cc1 [p-Coumaric acid] | 0.315 ± 0.0098 mM | 672 ± 10 ^b mV | Anodic Peak Potential Epa ([2]; listed as p-coumaric acid): 672 mV
2 | O=C(O)c1ccc(O)cc1 [4-HBA, 4-hydroxybenzoic acid] | 0.788 ± 0.0111 mM | 961 ± 11 ^a mV | 
3 | O=C(O)CCc1ccc(O)cc1O [3-2,4-DHPPA, 3-(2,4-dihydroxyphenyl)propionic acid] | 0.745 ± 0.00833 mM | 659 ± 8 ^e mV | antioxidant power class based on the first oxidation potential [2, 4]: moderate antioxidant power (moderate antioxidant power (0.3 V < Epa < 0.8 V))
4 | O=c1c(O)c(-c2ccc(O)cc2)oc2cc(OC3OC(CO)C(O)C(O)C3O)cc(O)c12 (stereo not drawn) [Kaempferol-7-O-glucoside] | 0.0977 ± 0.00208 mM | 419 ± 6 ^f mV | lower IC50 in relation to the respective aglycone [1]: 26%
5 | O=C1C[C@@H](c2ccc(O)cc2)Oc2cc(O)cc(O)c21 [Naringenin] | 0.391 mM | 819 ± 7 ^bc mV | 
6 | N[C@@H](CCC(=O)N[C@@H](CS)C(=O)NCC(=O)O)C(=O)O [GSH, reduced glutathione, reference compound] | 0.0417 mM |  | 
7 | O=C(O)c1ccc(O)c(O)c1 [Protocatechuic acid] | 6.235 ± 0.042 mM | 417 ± 12 ^e mV | IC50 ([1]; values of this study restated in mM in the discussion, read-out: IC50 (ACE inhibition)): 6.24 mM; Anodic Peak Potential Epa ([2]; listed as protocatechuic acid): 417 mV
8 | O=C(O)CCc1ccc(O)c(O)c1 [3,4-DHPPA, 3-(3,4-dihydroxyphenyl)propionic acid] | 0.612 ± 0.00651 mM | 218 ± 3 ^h mV | 
9 | O=c1cc(-c2ccc(O)cc2)oc2cc(OC3O[C@H](CO)[C@@H](O)[C@H](O)[C@H]3O)cc(O)c12 (stereo partly drawn) [Apigenin-7-O-glucoside] | 0.218 ± 0.00253 mM | 841 ± 6 ^ab mV | lower IC50 in relation to the respective aglycone [1]: 35%
10 | OCC1OC(Oc2cc3c(O)cc(O)cc3[o+]c2-c2cc(O)c(O)c(O)c2)C(O)C(O)C1O (stereo not drawn) [Delphinidin-3-O-glucoside] | 0.2088 ± 0.00133 mM | 453 ± 4 ^e mV | lower IC50 in relation to the respective aglycone [1]: 16%
11 | Oc1ccc(-c2[o+]c3cc(O)cc(O)c3cc2O)cc1 [Pelargonidin] | 0.293 ± 0.0034 mM | 228 ± 5 ^j mV | 
12 | COc1cc(C(=O)O)ccc1O [Vanillic acid] | 4.11 ± 0.0483 mM | 748 ± 10 ^a mV | Anodic Peak Potential Epa ([2]; listed as vanillic acid): 748 mV
13 | O=C(/C=C/c1ccc(O)c(O)c1)O[C@@H]1C[C@](O)(C(=O)O)C[C@@H](O)[C@H]1O [Chlorogenic acid] | 0.134 mM | 443 ± 9 ^d mV | ACE inhibitory activity lower than that of reduced glutathione (GSH) [1]: threefold
14 | O=C1CC(c2ccc(O)cc2)Oc2cc(OC3OC(CO)C(O)C(O)C3O)cc(O)c21 (stereo not drawn) [Naringenin-7-O-glucoside] | 0.3572 ± 0.00199 mM | 830 ± 8 ^ab mV | lower IC50 in relation to the respective aglycone [1]: 9%
15 | COC(=O)CCc1ccc(O)cc1 [MET, 3-(4-hydroxyphenyl)propionic methyl ester] | 0.726 ± 0.00571 mM | 574 ± 5 ^f mV | antioxidant power class based on the first oxidation potential [2, 4]: moderate antioxidant power (moderate antioxidant power (0.3 V < Epa < 0.8 V))
16 | O=c1c(O)c(-c2ccc(O)c(O)c2)oc2cc(O)cc(O)c12 [Quercetin] | 0.121 ± 0.00156 mM | 330 ± 4 ^g mV | 
17 | O=C(O)CCc1ccc(O)cc1 [4-HPPA, 3-(4-hydroxyphenyl)propionic acid] | 0.49 mM and 0.491 mM | 664 ± 8 ^e mV | ACE inhibitory activity lower than that of reduced glutathione (GSH) [1]: ~12 fold; antioxidant power class based on the first oxidation potential [2, 4]: moderate antioxidant power (moderate antioxidant power (0.3 V < Epa < 0.8 V))
18 | O=C(O)CCc1ccccc1O [2-HPPA, 3-(2-hydroxyphenyl)propionic acid] | 0.9329 ± 0.00642 mM | 781 ± 9 ^d mV | antioxidant power class based on the first oxidation potential [2, 4]: moderate antioxidant power (moderate antioxidant power (0.3 V < Epa < 0.8 V))
19 | COc1cc(/C=C/C(=O)O)cc(OC)c1O [Sinapic acid] |  | 618 ± 7 ^c mV | IC50 ([1]; IC50 Value (ACE inhibitory activity), porcine kidney ACE, substrate Abz-Gly-Phe(NO2)-Pro, fluorescence after 30 min, mean ± SD): 0.493 ± 0.00614 mM
20 | O=C(O)Cc1cccc(O)c1 [3-HPAA, 3-hydroxyphenylacetic acid] | 0.679 ± 0.0077 mM | 883 ± 11 ^b mV | antioxidant power class based on the first oxidation potential [2, 4]: weak antioxidant power (weak antioxidant power (Epa ˃ 0.8 V))
21 | OCC1OC(Oc2cc3c(O)cc(O)cc3[o+]c2-c2ccc(O)cc2)C(O)C(O)C1O (stereo not drawn) [Pelargonidin-3-O-glucoside] | 0.3769 ± 0.00261 mM | 473 ± 5 ^d mV | higher value of IC50 as compared to the IC50 of the respective aglycon [1]: 29%
22 | O=c1cc(-c2ccc(OC3OC(CO)C(O)C(O)C3O)c(O)c2)oc2cc(O)cc(O)c12 (stereo not drawn) [Luteolin-4′-O-glucoside] | 0.0889 ± 0.00168 mM | 828 ± 5 ^b mV | higher value of IC50 as compared to the IC50 of the respective aglycon [1]: 15%
23 | Oc1cc(O)c2cc(O)c(-c3ccc(O)c(O)c3)[o+]c2c1 [Cyanidin] | 0.176 ± 0.00238 mM | 295 ± 3 ^h mV | antioxidant power class based on the first oxidation potential ([2]; flavonoids and glucosides): high antioxidant power (high antioxidant power (Ep < 0.3 V))

Reference: article PMC12298876, “Angiotensin-Converting Enzyme Inhibitory Activity of Selected Phenolic Acids, Flavonoids, Their O-Glucosides, and Low-Molecular-Weight Phenolic Metabolites in Relation to Their Oxidation Potentials” (Metabolites, 2025)
